# Measurements reported in publication PMC9586895, “Esomeprazole and apixaban pharmacokinetic interactions in healthy rats” (Heliyon, 2022).
# Read-outs that look alike come from different tables or passages of the source.
# Experiments:
# [1] = Pharmacokinetic study in Wistar rats, plasma levels by HPLC/MS, non-compartmental analysis; assay type: in vivo; details: for bioavailability: read-out: absolute bioavailability (F); for AUC(0-t): read-out: AUC0–24; for Cpmax: rat plasma
# Description: The column is ACE C8 (50 ∗ 4.6) mm, particle size 5 μm (Supercell), and AP 13C as the internal standard. […] The chromatographic conditions of Ap and ESO analysis were as follows: The HPLC system: […] Detector: API 4000, Applied Biosystems, MDS SCIEX; computer system: […] Data Management Software: […] Column: ACE C8, (50 ∗ 4.6) mm, particle size 5 μm; Flow Rate: 650 μL/min; Injection Volume: 1 μL; […] Expected retention time: […] The ethical committee approved the study protocol of the High Research Council, Faculty of Pharmacy of the […] University, and the study was carried out in the animal house of the university. […] They were divided into five groups, each of 6 rats. Group 1 ([…].V sterile solution (5 mg/kg) in D.W containing 5% ethanol. Group 2 (G2) was given AP as sterile I.V solution (125 mcg/kg) in D.W containing 10% ethanol. […] All rats fasted overnight with access only to water. […] Blood samples were drawn into an EDTA tube and immediately centrifuged at 14,000 rpm for 7 min. Plasma was obtained and placed into a labeled Eppendorf tube and stored at […] until analysis. After constructing the Cp vs. t profile by plotting the average plasma concentration of each drug in ng/mL vs. time in hours, the pharmacokinetics was performed using Non-Compartmental Analysis (NCA) using WinNonlin® (Version 8.1).
# [2] = cited from earlier work
# [3] = system: plasma protein, mainly albumin; details: cited from earlier work
# P-gp = system: P-gp; design: method as in PMID 11770010; details: cited from earlier work
# [4] = IV (ESO 5 mg/kg; AP 125 mcg/kg)
# [5] = Wistar, rat, plasma, iv, IV (ESO 5 mg/kg; AP 125 mcg/kg)
# [6] = Wistar, rat, plasma, iv, IV (ESO 5 mg/kg; AP 125 mcg/kg), NCA, read-out: Kel (app) (converted)
# [7] = Wistar, rat, plasma, iv, read-out: Vd
# [8] = Wistar, rat, plasma, po, ESO 5 mg/kg + AP 250 mcg/kg in combination
# [9] = Wistar, rat, plasma, po, ESO 5 mg/kg + AP 250 mcg/kg in combination, NCA, read-out: Kel (app) (converted)
# [10] = Wistar, rat, plasma, po, given alone (ESO 5 mg/kg; AP 250 mcg/kg)
# [11] = Wistar, rat, plasma, po, given alone (ESO 5 mg/kg; AP 250 mcg/kg), NCA, read-out: Kel (app) (converted)
# [12] = oral, ESO 5 mg/kg + AP 250 mcg/kg in combination
# [13] = oral, given alone (ESO 5 mg/kg; AP 250 mcg/kg)
SMILES,"AUMC0–24 [1, 4] [ng.h^2/mL]","AUMC0–∞ [1, 4] [ng.h^2/mL]","clearance ([1]; Wistar, rat, plasma, iv) [mL/min]","AUC(0-inf) [1, 5] [ng·h/mL]","MRT inf [1, 5] [h]","half-life [1, 5] [h]","k el [1, 6] [s⁻¹]","AUC(0-t) [1, 5] [ng·h/mL]","Vd [1, 7] [L]","AUC(0-inf) [1, 8] [ng·h/mL]","MRT inf [1, 8] [h]","Tmax [1, 8] [h]","half-life [1, 8] [h]","k el [1, 9] [s⁻¹]","AUC(0-t) [1, 8] [ng·h/mL]","AUC(0-inf) [1, 10] [ng·h/mL]","MRT inf [1, 10] [h]","Tmax [1, 10] [h]","k el [1, 11] [s⁻¹]","AUC(0-t) [1, 10] [ng·h/mL]",also measured
"COc1ccc(-n2nc(C(N)=O)c3c2C(=O)N(c2ccc(N4CCCCC4=O)cc2)CC3)cc1 [AP, 1-(4-methoxyphenyl)-7-oxo-6-[4-(2-oxopiperidin-1-yl)phenyl]-4,5-dihydropyrazolo [3,4-c]pyridine-3-carboxamide]",8164.8 ± 78.3,28975.07 ± 2364,0.3 ± 0.08,1340 ± 120,21.5 ± 1.5,14.9 ± 1.8,1.29e-05,894 ± 80.6,0.4 ± 0.09,1560 ± 78,14 ± 0.21,1 ± 0.32,9.6 ± 0.144,1.99e-05,1270 ± 63.3,1540 ± 54,24 ± 0.24,6 ± 1.09,1.17e-05,959 ± 38.4,"bioavailability ([1]; Wistar, rat, plasma, 250 mcg/kg, oral vs IV, drug given alone, F=AUCoral/AUCiv∙Doseiv/Doseoral): 42 ± 1%; half-life [1, 10]: 16.6 ± 0.99 h; AUMC0–24 [1, 12]: 10320.5 ± 516 ng.h^2/mL; AUMC0–∞ [1, 12]: 21710.2 ± 215.1 ng.h^2/mL; Vd [1, 12]: 2.1 ± 0.015 L; Cpmax [1, 12]: 98.6 ± 12.6 ng/mL; AUMC0–24 [1, 13]: 9517 ± 475.8 ng.h^2/mL; AUMC0–∞ [1, 13]: 37101 ± 742.2 ng.h^2/mL; Cl [1, 13]: 0.54 ± 0.03 mL/min; Vd [1, 13]: 0.779 ± 0.032 L; Cpmax [1, 13]: 57.2 ± 5.3 ng/mL; excreted in the urine as unchanged drug [2]: 25%; excreted into the bile as unchanged drug [2]: 56%; share of total absorption in the distal part and the descending colon [2]: 55%; volume of distribution ([2]; mainly extracellular fluids ref 14): 21 L; bioavailability ([2]; no noticeable effect of food ref 12): around 50%; bound to plasma protein ([3]; mainly albumin ref 14): 87–90%"
"COc1ccc2[nH]c([S+]([O-])Cc3ncc(C)c(OC)c3C)nc2c1 (stereo not shown) [ESO, 5-methoxy-2-{[(4-methoxy-3,5-dimethylpyridin-2-yl)methyl]sulfinyl}-1H-benzimidazole]",35805 ± 826,40322.6 ± 1256,3.7 ± 0.7,5450 ± 118,7.4 ± 0.95,4.8 ± 0.8,3.94e-05,5120 ± 120,1.5 ± 0.15,3410 ± 45.9,8.6 ± 0.13,4 ± 0.55,5.9 ± 0.236,3.22e-05,3250 ± 160,4510 ± 226,6.4 ± 0.128,2 ± 0.156,4.08e-05,4380 ± 218,"half-life ([1]; Wistar, rat, in vivo, po): 4.7 ± 0.14 h; bioavailability ([1]; Wistar, rat, plasma, oral): 62 ± 1.5%; k el ([1]; Wistar, rat, plasma, po, 5 mg/kg, oral ESO 5 mg/kg alone, read-out: elimination rate constant calculated from late concentrations of the plasma level time profile (linear model) (converted)): 4.53e-05 s⁻¹; decrease of AUC when given with AP ([1]; oral ESO 5 mg/kg with AP 250 mcg/kg vs alone): 25%; extrapolated area to infinity as share of the total area ([1]; oral ESO alone): about 13%; extrapolated area to infinity as share of the total area ([1]; oral ESO in combination with AP): 20%; AUMC0–24 [1, 12]: 23544.9 ± 309 ng.h^2/mL; AUMC0–∞ [1, 12]: 29430.9 ± 1473 ng.h^2/mL; Cl [1, 12]: 4.8 ± 0.14 mL/min; Vd [1, 12]: 2.4 ± 0.09 L; Cpmax [1, 12]: 387.9 ± 23.5 ng/mL; AUMC0–24 [1, 13]: 24658.6 ± 206.5 ng.h^2/mL; AUMC0–∞ [1, 13]: 29094.1 ± 1454.7 ng.h^2/mL; Vd [1, 13]: 1.41 ± 0.07 L; Cpmax [1, 13]: 695.9 ± 25.8 ng/mL; volume of distribution ([2]; adults ref 6, 7): 16 to 18 L; bioavailability ([2]; after 20 or 40 mg delayed-release tablets ref 6, 7): about 90%; plasma protein binding ([3]; mainly to albumin ref 6, 7): about 97%; P-gp inhibitor strength (P-gp): moderate to potent P-gp inhibitor"
